Test results taken from publication PMC9805530 (European journal of medicinal chemistry, 2022).
“Also recorded” adds a separate entry of the source.

Columns and labels:
Sirt5 = molecular target: T1, Sirt5 (Homo sapiens, UniProt Q9NXA8); assay: Fluorogenic Sirt5 Assay Kit; format: biochemical; settings: 100 μM compounds, 37 °C 30 min
T1 sequence (Q9NXA8 37-310): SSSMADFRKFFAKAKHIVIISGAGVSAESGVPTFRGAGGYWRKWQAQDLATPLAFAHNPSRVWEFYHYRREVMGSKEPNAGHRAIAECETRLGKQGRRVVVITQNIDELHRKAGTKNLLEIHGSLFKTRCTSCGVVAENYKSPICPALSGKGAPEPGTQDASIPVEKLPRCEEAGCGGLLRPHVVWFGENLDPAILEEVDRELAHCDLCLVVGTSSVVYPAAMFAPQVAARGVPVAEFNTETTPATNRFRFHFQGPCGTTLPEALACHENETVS

PLC/PRF/5 cells [1] = assay: Acetylated H3K9 to total H3 in cancer cells; format: cell-based; settings: 30 μM, 24 hours
Sirt6 [2] = molecular target: T2, Sirt6 (Homo sapiens, UniProt Q8N6T7); assay: Sirt6-dependent peptide deacetylation, Fluor de Lys; settings: for effect on Sirt6 activity (time course): Fig. 3A; for Activation Fold 100 μM: compound at 100 μM; for Activation Fold 100 μM / Activation Fold 30 μM: mean ± SD, at least two independent experiments; for Activation Fold 30 μM: compound at 30 μM
Sirt1 = molecular target: T3, Sirt1 (Homo sapiens, UniProt Q96EB6); assay: Sirt1 deacetylation Activity Assay Kit; settings: time course, Fig. 3
T3 sequence (Q96EB6 1-747): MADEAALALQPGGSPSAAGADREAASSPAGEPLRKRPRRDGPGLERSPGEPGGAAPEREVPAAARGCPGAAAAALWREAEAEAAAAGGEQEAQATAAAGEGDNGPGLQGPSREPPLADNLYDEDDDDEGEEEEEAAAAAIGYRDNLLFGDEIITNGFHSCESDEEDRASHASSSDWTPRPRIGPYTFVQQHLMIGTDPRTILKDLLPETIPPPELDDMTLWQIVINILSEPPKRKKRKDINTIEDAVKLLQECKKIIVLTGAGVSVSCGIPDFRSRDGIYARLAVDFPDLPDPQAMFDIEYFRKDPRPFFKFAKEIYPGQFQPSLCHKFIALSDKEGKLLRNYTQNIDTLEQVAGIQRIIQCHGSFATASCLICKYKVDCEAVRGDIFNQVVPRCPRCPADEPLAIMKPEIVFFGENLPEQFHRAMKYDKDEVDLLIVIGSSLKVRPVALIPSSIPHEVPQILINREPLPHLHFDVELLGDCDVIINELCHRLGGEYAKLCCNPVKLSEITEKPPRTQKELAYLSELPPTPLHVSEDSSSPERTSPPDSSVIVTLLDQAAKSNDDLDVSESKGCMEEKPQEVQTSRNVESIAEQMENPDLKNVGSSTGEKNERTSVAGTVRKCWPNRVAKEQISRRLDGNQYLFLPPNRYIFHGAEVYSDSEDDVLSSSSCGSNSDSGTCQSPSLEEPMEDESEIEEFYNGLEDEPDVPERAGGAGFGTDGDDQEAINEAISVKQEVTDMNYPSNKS

H1299 cells [3] = assay: Colony formation assay; format: cell-based; settings: 30 μM, one week
Sirt2 = molecular target: T4, Sirt2 (Homo sapiens, UniProt Q8IXJ6); assay: Sirt2 deacetylation Activity Assay Kit; settings: time course, Fig. 3
T4 sequence (Q8IXJ6 1-389): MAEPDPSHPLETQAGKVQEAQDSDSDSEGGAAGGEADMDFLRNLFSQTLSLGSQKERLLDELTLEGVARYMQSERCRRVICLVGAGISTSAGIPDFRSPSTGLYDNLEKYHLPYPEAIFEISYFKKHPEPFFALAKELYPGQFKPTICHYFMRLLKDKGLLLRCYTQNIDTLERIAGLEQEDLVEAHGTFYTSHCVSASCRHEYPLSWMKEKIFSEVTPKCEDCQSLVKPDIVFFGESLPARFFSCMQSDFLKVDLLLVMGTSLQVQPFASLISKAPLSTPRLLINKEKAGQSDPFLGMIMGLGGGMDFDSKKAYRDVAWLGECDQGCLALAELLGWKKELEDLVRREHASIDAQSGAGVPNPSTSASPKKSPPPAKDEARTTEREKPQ

BV2 cells = assay: LPS-induced inflammatory gene mRNA expression; settings: 30 μM pretreatment 30 minutes, 100 ng/mL LPS 6 hours
Sirt6 [4] = molecular target: T2, Sirt6; format: biochemical; settings: 100 μM, 30 °C, 60 minutes
R28 cells = assay: MTT cell viability assay; format: cell-based; settings: 100 μM, 24 hours
H1299 cells [5] = assay: Acetylated H3K9 to total H3 in cancer cells; format: cell-based; settings: 30 μM, 24 hours
PLC/PRF/5 cells [6] = assay: Colony formation assay; format: cell-based; settings: 30 μM, one week

T2 sequence (Q8N6T7 whole entry): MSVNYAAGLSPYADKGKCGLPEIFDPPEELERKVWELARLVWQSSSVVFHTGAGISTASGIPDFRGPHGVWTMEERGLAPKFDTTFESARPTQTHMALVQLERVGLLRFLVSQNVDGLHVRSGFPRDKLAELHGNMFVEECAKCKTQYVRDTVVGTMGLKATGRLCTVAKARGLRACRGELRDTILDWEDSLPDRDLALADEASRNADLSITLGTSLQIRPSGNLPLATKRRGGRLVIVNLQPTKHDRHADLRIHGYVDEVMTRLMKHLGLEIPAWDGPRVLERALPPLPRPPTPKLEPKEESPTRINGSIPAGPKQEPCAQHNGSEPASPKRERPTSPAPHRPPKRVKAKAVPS

effect on Sirt5 desuccinylation activity (Sirt5)	effect on Sirt6 activity (time course) (Sirt6 [2])	effect on Sirt1 deacetylation activity (Sirt1)	effect on Sirt2 deacetylation activity (Sirt2)	acetylation of H3K9 in the nucleosome test (Sirt6 [4])	Activation Fold 100 μM (Sirt6 [2])	SMILES	ICAM-1 induction (BV2 cells)	LPS-induced expression of IL-1β (BV2 cells)	LPS-induced expression of IL-6 (BV2 cells)	LPS-induced expression of MCP-1 (BV2 cells)	LPS-induced expression of TNFα (BV2 cells)	LPS-induced CXCL10 expression (BV2 cells)	LPS-induced iNOS expression (BV2 cells)	further results
no significant effects	specifically promoted	no significant effects	no significant effects	significantly decreased		OCCN1CCN(c2ncccc2C2Nc3ccccc3-n3cccc32)CC1 (stereo not drawn) [Compound 35, 2-(4-(3-(4,5-Dihydropyrrolo[1,2-a]quinoxalin-4-yl)pyridin-2-yl)piperazin-1-yl)ethan-1-ol]	slight inhibition	strongly inhibited	strongly inhibited	strongly inhibited	strongly inhibited			Sirt6-dependent deacetylation of H3K9 (acetylated H3K9 to total H3) (PLC/PRF/5 cells [1]): no obvious influence; inhibition of colony formation (H1299 cells [3]): only a slight inhibitory effect; toxicity on R28 cells (R28 cells): no obvious toxicity; Sirt6-dependent deacetylation of H3K9 (acetylated H3K9 to total H3) (H1299 cells [5]): no obvious influence; inhibition of colony formation (PLC/PRF/5 cells [6]): only a slight inhibitory effect
no significant effects	specifically promoted	no significant effects	no significant effects	significantly decreased		OC1CN(CCN2CCN(c3ncccc3C3Nc4ccccc4-n4cccc43)CC2)C1 (stereo not drawn) [Compound 46, 1-(2-(4-(3-(4,5-Dihydropyrrolo[1,2-a]quinoxalin-4-yl)pyridin-2-yl)piperazin-1-yl)ethyl)azetidin-3-ol]		strongly inhibited; also recorded: almost reversed	strongly inhibited; also recorded: almost reversed	strongly inhibited; also recorded: almost reversed	strongly inhibited	significantly repressed	significantly repressed	VCAM-1 induction (BV2 cells): obviously inhibit
					~ 2 fold	O=S1(=O)CCN(c2ncccc2C2Nc3ccccc3-n3cccc32)CC1 (stereo not drawn) [Compound 26, 4-(3-(4,5-Dihydropyrrolo[1,2-a]quinoxalin-4-yl)pyridin-2-yl)thiomorpholine 1,1-dioxide]								
no significant effects	specifically promoted	no significant effects	no significant effects	no effect	5.38 ± 0.29 fold	c1ccc2c(c1)NC(c1cccnc1N1CCN(CCN3CCCC3)CC1)c1cccn1-2 (stereo not drawn) [Compound 47, 4-(2-(4-(2-(Pyrrolidin-1-yl)ethyl)piperazin-1-yl)pyridin-3-yl)-4,5-dihydropyrrolo[1,2-a]quinoxaline]	slight inhibition	strongly inhibited; also recorded: almost reversed	strongly inhibited; also recorded: almost reversed	strongly inhibited; also recorded: almost reversed	strongly inhibited	significantly repressed	significantly repressed	Activation Fold 30 μM (Sirt6 [2]): 4.80 ± 0.19 fold; VCAM-1 induction (BV2 cells): obviously inhibit
no significant effects	specifically promoted	no significant effects	no significant effects	significantly decreased	6.29 ± 0.02 fold	c1ccc2c(c1)NC(c1cccnc1N1CCN(CCn3ccnc3)CC1)c1cccn1-2 (stereo not drawn) [Compound 50, 4-(2-(4-(2-(1H-Imidazol-1-yl)ethyl)piperazin-1-yl)pyridin-3-yl)-4,5-dihydropyrrolo[1,2-a]quinoxaline]	slight inhibition	strongly inhibited; also recorded: almost reversed	strongly inhibited; also recorded: almost reversed	strongly inhibited; also recorded: almost reversed	strongly inhibited	significantly repressed	significantly repressed	Activation Fold 30 μM (Sirt6 [2]): 3.34 ± 0.19 fold
					~ 2 fold	FC1(F)CCN(c2ncccc2C2Nc3ccccc3-n3cccc32)CC1 (stereo not drawn) [Compound 25, 4-(2-(4,4-Difluoropiperidin-1-yl)pyridin-3-yl)-4,5-dihydropyrrolo[1,2-a]quinoxaline]								
					~ 2 fold	OC1CCN(c2ncccc2C2Nc3ccccc3-n3cccc32)CC1 (stereo not drawn) [Compound 27, 1-(3-(4,5-Dihydropyrrolo[1,2-a]quinoxalin-4-yl)pyridin-2-yl)piperidin-4-ol]								
no significant effects	specifically promoted	no significant effects	no significant effects	significantly decreased		COCCN1CCN(c2ncccc2C2Nc3ccccc3-n3cccc32)CC1 (stereo not drawn) [Compound 36, 4-(2-(4-(2-Methoxyethyl)piperazin-1-yl)pyridin-3-yl)-4,5-dihydropyrrolo[1,2-a]quinoxaline]		strongly inhibited	strongly inhibited	strongly inhibited	strongly inhibited			Sirt6-dependent deacetylation of H3K9 (acetylated H3K9 to total H3) (PLC/PRF/5 cells [1]): significantly activated Sirt6 to deacetylate H3K9; decrease of acetylated H3K9 when Sirt6 knockdown by siRNA (PLC/PRF/5 cells [1]; Sirt6 siRNA): abolished; inhibition of colony formation (H1299 cells [3]): about half; toxicity on R28 cells (R28 cells): no obvious toxicity; Sirt6-dependent deacetylation of H3K9 (acetylated H3K9 to total H3) (H1299 cells [5]): significantly activated Sirt6 to deacetylate H3K9; decrease of acetylated H3K9 when Sirt6 knockdown by siRNA (H1299 cells [5]; Sirt6 siRNA): abolished; inhibition of colony formation (PLC/PRF/5 cells [6]): about half
